In patent US20110097274A1, “Carbon-11 and fluorine-18 labeled radioligands for positron emission tomography (PET) imaging for the brain serotonin transporters” (priority 2002, published 2011):
Read-outs that look alike come from different tables or passages of the source.

Key:
[1] = molecular target: T1, norepinephrine transporter (NET) (Homo sapiens, UniProt P23975); experiment: In vitro binding affinity for NET, radioligand [^3H]nisoxetine (Table 1); set-up: species or system rat or human (cloned)
T1 construct: host or cells: either rat cortical tissue or cells expressing the cloned human transporter
Description: (§1) Selected compounds were assayed in vitro for their binding affinity for the dopamine transporter (DAT), serotonin transporter (SERT), and norepinephrine transporter (NET) using membranes prepared from either the rat cortical tissues or cells expressed with cloned-human transporters and radioligands. Radioligands used were [^3H]paroxetine (SERT), [^3H]nisoxetine (NET), and [^3H]GBR12935 (DAT).

[2] = molecular target: T2, serotonin transporter (SERT) (Rattus norvegicus, UniProt P31652); experiment: In vitro binding affinity for SERT, radioligand [^3H]paroxetine (Table 1); set-up: species or system rat or human (cloned)
T2 construct: membranes prepared from either the rat cortical tissues or cells expressed with cloned-human transporters; from tissue; host or cells: rat cortical tissue membranes (inferred; the alternative is cells expressing cloned human SERT)
Description: as §1

[3] = molecular target: T3, dopamine transporter (DAT) (Homo sapiens, UniProt Q01959); experiment: In vitro binding affinity for DAT, radioligand [^3H]GBR12935 (Table 1); set-up: species or system rat or human (cloned)
T3 construct: host or cells: either rat cortical tissue or cells expressing the cloned human transporter
Description: as §1

[4] = Experiment 5: plasma clearance of ^11C and ^18F labeled AFM, AFA, AFE in one baboon; type: in vivo; details: one adult male baboon, n = 1 to 4 scans
Description: (§2) General scanning methods were as described in Huang et al. (2002). Arterial input function was measured and corrected for metabolites.

[5] = Biodistribution of labeled radioligands in male Sprague-Dawley rats; type: in vivo; details: mean ± SD, n = 3
Source text: Appropriately labeled compounds were studied in animals to assess their binding characteristics in the brain. Procedures for these biodistribution studies are as follows. […] The brain regions (cerebellum, hippocampus, striatum, frontal cortex, thalamus and hypothalamus), along with samples of blood and part of the tail, were removed, weighed, and counted in a Packard Cobra II gamma counter. The percent injected dose (% ID) of the decay- and tail-corrected activity in the brain regions and blood were calculated based upon C-11 standards prepared from the injection solution, and the % ID/g were calculated using the tissue weights.

SERT = experiment: Experiment 5: PET brain imaging of ^11C and ^18F labeled AFM, AFA, AFE in one baboon; type: in vivo; details: one adult male baboon, n = 1 to 4 scans, two-compartment model
Description: as §2
Activity distributed in the brain in accordance to the known density distribution pattern of SERT (Laruelle et al., 1988). […] Data were analyzed with a two-compartment model, using the metabolite-corrected arterial time-activity curve as input function. This analysis provided the regional distribution volumes (VT, mL/g).
The nonspecific distribution volume, measured as the distribution volume of the cerebellum (a region with negligible SERT density) was in a similar range for all tracers (10 to 30 mL/g, Table 16).
The specific to nonspecific partition coefficient, V3″, was calculated as the ratio of VT in the region of interest (ROI) to cerebellum VT minus one. V3″ provides a measure related to receptor parameters as follows: […]

T1 sequence (P23975 whole entry, species assumed): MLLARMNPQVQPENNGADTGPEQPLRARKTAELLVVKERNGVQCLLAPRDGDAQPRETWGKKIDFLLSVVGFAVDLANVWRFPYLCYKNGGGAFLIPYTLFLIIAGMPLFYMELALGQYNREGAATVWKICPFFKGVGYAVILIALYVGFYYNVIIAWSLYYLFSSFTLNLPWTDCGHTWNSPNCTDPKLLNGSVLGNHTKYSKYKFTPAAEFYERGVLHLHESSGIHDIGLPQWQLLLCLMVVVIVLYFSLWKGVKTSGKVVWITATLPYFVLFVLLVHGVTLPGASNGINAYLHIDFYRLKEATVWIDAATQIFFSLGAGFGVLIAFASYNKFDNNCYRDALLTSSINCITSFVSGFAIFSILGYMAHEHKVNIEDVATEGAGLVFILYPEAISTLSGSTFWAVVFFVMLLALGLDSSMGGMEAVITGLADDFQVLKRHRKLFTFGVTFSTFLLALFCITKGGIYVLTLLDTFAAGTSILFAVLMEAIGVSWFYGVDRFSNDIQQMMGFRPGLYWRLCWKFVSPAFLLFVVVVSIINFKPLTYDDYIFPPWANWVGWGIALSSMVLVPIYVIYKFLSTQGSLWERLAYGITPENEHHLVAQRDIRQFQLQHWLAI
T3 sequence (Q01959 whole entry, species assumed): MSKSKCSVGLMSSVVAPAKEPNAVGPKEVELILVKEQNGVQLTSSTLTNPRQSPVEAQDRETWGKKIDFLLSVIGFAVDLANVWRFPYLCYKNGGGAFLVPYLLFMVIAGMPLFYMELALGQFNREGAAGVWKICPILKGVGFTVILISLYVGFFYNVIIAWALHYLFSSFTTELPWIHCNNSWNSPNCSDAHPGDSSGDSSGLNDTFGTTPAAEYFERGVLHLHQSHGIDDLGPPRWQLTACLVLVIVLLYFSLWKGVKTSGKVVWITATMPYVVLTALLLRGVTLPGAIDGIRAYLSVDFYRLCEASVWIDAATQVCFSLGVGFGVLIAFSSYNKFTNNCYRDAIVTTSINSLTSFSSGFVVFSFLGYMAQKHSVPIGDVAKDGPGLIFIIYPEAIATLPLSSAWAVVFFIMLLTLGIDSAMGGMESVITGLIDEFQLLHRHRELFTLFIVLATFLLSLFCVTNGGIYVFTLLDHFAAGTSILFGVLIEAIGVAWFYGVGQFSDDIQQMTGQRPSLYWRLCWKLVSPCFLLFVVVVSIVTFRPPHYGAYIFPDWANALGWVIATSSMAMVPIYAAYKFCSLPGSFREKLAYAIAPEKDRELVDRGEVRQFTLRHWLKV
T2 sequence (P31652 whole entry): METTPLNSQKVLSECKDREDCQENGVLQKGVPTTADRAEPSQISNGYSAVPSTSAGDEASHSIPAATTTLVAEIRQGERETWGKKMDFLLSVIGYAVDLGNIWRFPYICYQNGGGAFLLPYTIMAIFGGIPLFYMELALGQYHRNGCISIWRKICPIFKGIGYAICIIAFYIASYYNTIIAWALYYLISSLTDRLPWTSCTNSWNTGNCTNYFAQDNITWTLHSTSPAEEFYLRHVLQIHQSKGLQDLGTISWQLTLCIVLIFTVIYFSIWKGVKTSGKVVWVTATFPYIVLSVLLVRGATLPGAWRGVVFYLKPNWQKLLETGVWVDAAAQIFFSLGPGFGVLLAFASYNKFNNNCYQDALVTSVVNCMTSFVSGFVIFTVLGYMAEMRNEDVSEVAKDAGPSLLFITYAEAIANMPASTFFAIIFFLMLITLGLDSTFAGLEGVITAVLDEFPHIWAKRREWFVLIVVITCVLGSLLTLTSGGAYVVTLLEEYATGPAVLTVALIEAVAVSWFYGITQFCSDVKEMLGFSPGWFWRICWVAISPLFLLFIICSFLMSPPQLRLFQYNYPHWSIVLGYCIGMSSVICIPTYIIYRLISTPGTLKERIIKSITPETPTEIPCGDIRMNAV

Row | SMILES | % ID/g Blood ([5]; 10 min post-injection) [% ID/g] | % ID/g Cerebellum ([5]; 10 min post-injection) [% ID/g] | % ID/g Frontal Ctx. ([5]; 10 min post-injection) [% ID/g] | % ID/g Hippocamp. ([5]; 10 min post-injection) [% ID/g] | % ID/g Hypothal. ([5]; 10 min post-injection) [% ID/g] | % ID/g Striatum ([5]; 10 min post-injection) [% ID/g] | % ID/g Thalamus ([5]; 10 min post-injection) [% ID/g] | % ID/g Blood ([5]; 30 min post-injection) [% ID/g] | % ID/g Cerebellum ([5]; 30 min post-injection) [% ID/g] | % ID/g Frontal Ctx. ([5]; 30 min post-injection) [% ID/g] | % ID/g Hippocamp. ([5]; 30 min post-injection) [% ID/g] | % ID/g Hypothal. ([5]; 30 min post-injection) [% ID/g] | % ID/g Striatum ([5]; 30 min post-injection) [% ID/g] | % ID/g Thalamus ([5]; 30 min post-injection) [% ID/g] | % ID/g Blood ([5]; 60 min post-injection) [% ID/g] | % ID/g Cerebellum ([5]; 60 min post-injection) [% ID/g] | % ID/g Frontal Ctx. ([5]; 60 min post-injection) [% ID/g] | % ID/g Hippocamp. ([5]; 60 min post-injection) [% ID/g] | % ID/g Hypothal. ([5]; 60 min post-injection) [% ID/g] | % ID/g Striatum ([5]; 60 min post-injection) [% ID/g] | also measured
1 | CN(C)Cc1ccccc1Sc1ccc(F)cc1N [AFA, 2-(2-(Dimethylaminomethyl)phenylthio)-5-fluorophenylamine] | – | – | – | – | – | – | – | – | – | – | – | – | – | – | – | – | – | – | – | – | Ki [1]: 0.142 µM; Ki ([2]; read-out: Ki SERT): 0.00146 µM; Ki [3]: > 10 µM
2 | CN(C)Cc1ccccc1Sc1ccc(CCF)cc1N [AFE, 2-(2-(Dimethylaminomethyl)phenylthio)-5-(2-fluoroethyl)phenylamine] | – | – | – | – | – | – | – | – | – | – | – | – | – | – | – | – | – | – | – | – | Ki [1]: 0.946 µM; Ki [2]: 0.00188 µM; Ki [3]: > 10 µM
3 | CN(C)Cc1ccccc1Sc1ccc(CCCF)cc1N [AFP, 2-(2-(Dimethylaminomethyl)phenylthio)-5-(3-fluoropropyl)-phenylamine] | – | – | – | – | – | – | – | – | – | – | – | – | – | – | – | – | – | – | – | – | Ki [1]: 0.505 µM; Ki [2]: 0.00358 µM; Ki [3]: > 10 µM
4 | Cc1ccc(Sc2ccccc2CN(C)C)c(N)c1 [MADAM, 2-(2-(Dimethylaminomethyl)phenylthio)-5-methylphenylamine] | – | – | – | – | – | – | – | – | – | – | – | – | – | – | – | – | – | – | – | – | Ki [1]: 0.32 µM; Ki [2]: 0.00119 µM; Ki [3]: > 10 µM
5 | CN([11CH3])Cc1ccccc1Sc1ccc(F)cc1N [[^11C]AFA, [^11C]2-[2-(Dimethylaminomethyl)phenylthio]-5-fluorophenylamine] | 0.26 ± 0.10 | 0.35 ± 0.12 | 0.70 ± 0.25 | 0.48 ± 0.17 | 0.55 ± 0.18 | 0.54 ± 0.18 | 0.60 ± 0.24 | 0.08 ± 0.01 | 0.14 ± 0.02 | 0.49 ± 0.06 | 0.34 ± 0.02 | 0.47 ± 0.06 | 0.38 ± 0.14 | 0.44 ± 0.05 | 0.06 ± 0.01 | 0.09 ± 0.02 | 0.29 ± 0.05 | 0.24 ± 0.03 | 0.42 ± 0.06 | 0.26 ± 0.04 | Clearance [4]: 54 ± 6 L/h; % ID/g Thalamus ([5]; 60 min post-injection): 0.39 ± 0.04 % ID/g; Cerebellum V (nonspecific distribution volume) (SERT): 13 ± 3 mL/g
6 | CN(C)Cc1ccccc1Sc1ccc(CCF)cc1N [[^11C]AFE, [^11C]2-[2-(Dimethylaminomethyl)phenylthio]-5-fluoroethylphenylamine] | 0.15 ± 0.03 | 0.31 ± 0.03 | 0.61 ± 0.07 | 0.44 ± 0.04 | 0.61 ± 0.11 | 0.58 ± 0.08 | 0.63 ± 0.08 | 0.07 ± 0.01 | 0.12 ± 0.00 | 0.39 ± 0.03 | 0.31 ± 0.03 | 0.44 ± 0.04 | 0.35 ± 0.05 | 0.44 ± 0.05 | 0.05 ± 0.01 | 0.05 ± 0.00 | 0.19 ± 0.02 | 0.18 ± 0.02 | 0.29 ± 0.03 | 0.19 ± 0.02 | Clearance [4]: 73 L/h; % ID/g Thalamus ([5]; 60 min post-injection): 0.22 ± 0.01 % ID/g; Cerebellum V (nonspecific distribution volume) (SERT): 16 mL/g
7 | Cc1ccc(Sc2ccccc2CN(C)[11CH3])c(N)c1 [[^11C]MADAM, [^11C]2-[2-(Dimethylaminomethyl)phenylthio]-5-methylphenylamine] | 0.61 ± 0.15 | 1.04 ± 0.33 | 2.17 ± 0.78 | 1.39 ± 0.29 | 1.93 ± 0.72 | 1.57 ± 0.54 | 1.95 ± 0.61 | 0.26 ± 0.07 | 0.55 ± 0.04 | 1.78 ± 0.23 | 1.14 ± 0.17 | 1.48 ± 0.22 | 1.41 ± 0.21 | 1.66 ± 0.17 | 0.15 ± 0.04 | 0.27 ± 0.01 | 0.89 ± 0.07 | 0.84 ± 0.27 | 1.39 ± 0.28 | 0.81 ± 0.15 | % ID/g Thalamus ([5]; 60 min post-injection): 1.14 ± 0.18 % ID/g
8 | CN(C)Cc1ccccc1Sc1ccc([18F])cc1N [[^18F]AFA, [^18F]2-[2-(Dimethylaminomethyl)phenylthio]-5-fluorophenylamine] | 0.27 ± 0.01 | 0.38 ± 0.09 | 0.81 ± 0.26 | 0.54 ± 0.17 | 0.73 ± 0.26 | 0.65 ± 0.18 | 0.72 ± 0.24 | 0.16 ± 0.01 | 0.20 ± 0.01 | 0.65 ± 0.08 | 0.48 ± 0.02 | 0.66 ± 0.05 | 0.58 ± 0.05 | 0.69 ± 0.03 | 0.09 ± 0.00 | 0.07 ± 0.01 | 0.28 ± 0.05 | 0.23 ± 0.04 | 0.38 ± 0.03 | 0.26 ± 0.02 | Clearance [4]: 68 L/h; % ID/g Thalamus ([5]; 60 min post-injection): 0.34 ± 0.05 % ID/g; % ID/g Blood ([5]; 90 min post-injection): 0.08 ± 0.01 % ID/g; % ID/g Cerebellum ([5]; 90 min post-injection): 0.05 ± 0.01 % ID/g; % ID/g Frontal Ctx. ([5]; 90 min post-injection): 0.20 ± 0.02 % ID/g; % ID/g Hippocamp. ([5]; 90 min post-injection): 0.18 ± 0.01 % ID/g; % ID/g Hypothal. ([5]; 90 min post-injection): 0.30 ± 0.06 % ID/g; % ID/g Striatum ([5]; 90 min post-injection): 0.19 ± 0.01 % ID/g; % ID/g Thalamus ([5]; 90 min post-injection): 0.23 ± 0.05 % ID/g; % ID/g Blood ([5]; 120 min post-injection): 0.07 ± 0.01 % ID/g; % ID/g Cerebellum ([5]; 120 min post-injection): 0.04 ± 0.00 % ID/g; % ID/g Frontal Ctx. ([5]; 120 min post-injection): 0.11 ± 0.02 % ID/g; % ID/g Hippocamp. ([5]; 120 min post-injection): 0.10 ± 0.01 % ID/g; % ID/g Hypothal. ([5]; 120 min post-injection): 0.17 ± 0.01 % ID/g; % ID/g Striatum ([5]; 120 min post-injection): 0.11 ± 0.02 % ID/g; % ID/g Thalamus ([5]; 120 min post-injection): 0.16 ± 0.02 % ID/g; Cerebellum V (nonspecific distribution volume) (SERT): 24 mL/g
9 | CN(C)Cc1ccccc1Sc1ccc(CC[18F])cc1N [[^18F]AFE, [^18F]2-[2-(Dimethylaminomethyl)phenylthio]-5-(2-fluoroethyl)phenylamine] | 0.25 ± 0.01 | 0.28 ± 0.02 | 0.62 ± 0.08 | 0.38 ± 0.03 | 0.51 ± 0.05 | 0.51 ± 0.05 | 0.58 ± 0.08 | 0.13 ± 0.03 | 0.13 ± 0.01 | 0.32 ± 0.01 | 0.27 ± 0.04 | 0.41 ± 0.03 | 0.33 ± 0.01 | 0.39 ± 0.01 | 0.07 ± 0.02 | 0.06 ± 0.01 | 0.19 ± 0.04 | 0.17 ± 0.04 | 0.24 ± 0.04 | 0.21 ± 0.05 | Clearance [4]: 71 L/h; % ID/g Thalamus ([5]; 60 min post-injection): 0.27 ± 0.04 % ID/g; % ID/g Blood ([5]; 90 min post-injection): 0.04 ± 0.01 % ID/g; % ID/g Cerebellum ([5]; 90 min post-injection): 0.03 ± 0.01 % ID/g; % ID/g Frontal Ctx. ([5]; 90 min post-injection): 0.08 ± 0.01 % ID/g; % ID/g Hippocamp. ([5]; 90 min post-injection): 0.09 ± 0.01 % ID/g; % ID/g Hypothal. ([5]; 90 min post-injection): 0.14 ± 0.02 % ID/g; % ID/g Striatum ([5]; 90 min post-injection): 0.10 ± 0.02 % ID/g; % ID/g Thalamus ([5]; 90 min post-injection): 0.17 ± 0.02 % ID/g; % ID/g Blood ([5]; 120 min post-injection): 0.02 ± 0.01 % ID/g; % ID/g Cerebellum ([5]; 120 min post-injection): 0.02 ± 0.00 % ID/g; % ID/g Frontal Ctx. ([5]; 120 min post-injection): 0.06 ± 0.00 % ID/g; % ID/g Hippocamp. ([5]; 120 min post-injection): 0.07 ± 0.00 % ID/g; % ID/g Hypothal. ([5]; 120 min post-injection): 0.10 ± 0.01 % ID/g; % ID/g Striatum ([5]; 120 min post-injection): 0.08 ± 0.01 % ID/g; % ID/g Thalamus ([5]; 120 min post-injection): 0.13 ± 0.02 % ID/g; Cerebellum V (nonspecific distribution volume) (SERT): 19 mL/g
